Source: patent US20240382494A1, “THERAPEUTIC COMPOUNDS” (priority 2023, published 2024)

Experiments:
SARS-CoV-2 PLpro = SARS-CoV-2 PLpro (Severe acute respiratory syndrome coronavirus 2, UniProt P0DTD1); assay: FRET-based PLpro enzymatic assay; format: biochemical; settings: 200 nM PLpro, 10 μM FRET substrate, 30 min preincubation at 30° C.; read-out: IC50
Method in brief: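 200 nM PLpro in 50 mM Hepes pH 7.5, 0.01% Triton X-100, 5 mM DTT, preincubated with compound 30 min at 30 °C; 10 μM final FRET substrate.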

[1] = Cytotoxicity assay in Vero E6 cells (neutral red uptake); format: cell-based; settings: African green monkey; Vero E6 cells, 2 days at 37° C., neutral red uptake; read-out: Vero CC50
Description: Briefly, 80.000 cells/ml of the tested cell lines were dispensed into 96-well cell culture plates at 100 μl per well Twenty-four hours later, the growth medium was removed and washed with 150 μl of PBS buffer. Two hundred microliters of fresh serum-free medium containing serial diluted compounds was added to each well. After incubating for 2 days at 37° C., the medium was removed and replaced with 100 μl of DMEM medium containing neutral red (40 μg/ml) and incubated for 2 to 4 hours at 37° C. The amount of neutral red taken up was determined by measuring the absorbance at 540 nm using a Multiskan FC Microplate Photometer (Thermo Fisher Scientific) The CC50 values were calculated from best-fit dose-response curves with variable slope in Prism 8.

Row | SMILES | IC50 (SARS-CoV-2 PLpro) [µM] | CC50 at 2 days [1] [µM]
1 | Cc1ccc(OCCN(C)C)cc1C(=O)N[C@H](C)c1cc(-c2ccc(CN)s2)nc2ccccc12 [Example 55, (R)—N-(1-(2-(5-(aminomethyl)thiophen-2-yl)quinolin-4-yl)-ethyl)-5-(2-(dimethylamino)ethoxy)-2-methylbenzamide] | < 0.5 | 34.6 ± 8.18
2 | Cc1ccc(OCCN(C)C)cc1C(=O)N[C@H](C)c1cc(-c2cnc3[nH]ccc3c2)nc2ccccc12 [Example 60, (R)—N-(1-(2-(1H-pyrrolo[2,3-b]pyridin-5-yl)-quinolin-4-yl)ethyl)-5-(2-(dimethylamino)ethoxy)-2-methylbenzamide] | > 5 | 25.8 ± 2.25
3 | Cc1ccc(OCCN(C)C)cc1C(=O)N[C@H](C)c1cc(-c2cnn(CCO)c2)nc2ccccc12 [Example 22, (R)-5-(2-(dimethylamino)ethoxy)-N-(1-(2-(1-(2-hydroxyethyl)-1H-pyrazol-4-yl)quinolin-4-yl)ethyl)-2-methylbenzamide] | < 0.5 | 153 ± 43.9
4 | Cc1ccc(N2CCC3(CC2)CN(C)C3)cc1C(=O)N[C@H](C)c1cc(-c2cnn(C)c2)nc2ccccc12 [Example 92, (R)-2-methyl-N-(1-(2-(1-methyl-1H-pyrazol-4-yl)quinolin-4-yl)ethyl)-5-(2-methyl-2,7-diazaspiro[3.5]nonan-7-yl)benzamide] | 0.5 to 1 | 76.5 ± 2.18
5 | Cc1ccc(N2CC[C@@H](N(C)C)C2)cc1C(=O)N[C@H](C)c1cc(-c2cnn(C)c2)nc2ccccc12 [Example 96, 5-((R)-3-(dimethylamino)pyrrolidin-1-yl)-2-methyl-N—((R)-1-(2-(1-methyl-1H-pyrazol-4-yl)quinolin-4-yl)ethyl)benzamide] | < 0.5 | 28.8
6 | Cc1ccc(OCCN(C)C)cc1C(=O)N[C@H](C)c1cc(-c2ccnn2C)nc2ccccc12 [Example 13, (R)-5-(2-(dimethylamino)ethoxy)-2-methyl-N-(1-(2-(1-methyl-1H-pyrazol-5-yl)quinolin-4-yl)ethyl)benzamide] | < 0.5 | 60 ± 8.43
7 | Cc1ccc(OCCN(C)C)cc1C(=O)N[C@H](C)c1cc(-n2cncn2)nc2ccccc12 [Example 47, (R)—N-(1-(2-(1H-1,2,4-triazol-1-yl)quinoline 4-yl)ethyl)-5-(2-(dimethylamino)ethoxy)-2-methylbenzamide] | 0.5 to 1 | 17.5 ± 5.23
8 | Cc1ccc(OCCN(C)C)cc1C(=O)N[C@H](C)c1cc(-c2cnn(CC(=O)N3CCCC3)c2)nc2ccccc12 [Example 69, (R)-5-(2-(dimethylamino)ethoxy)-2-methyl-N-(1-(2-(1-(2-oxo-2-(pyrrolidin-1-yl)ethyl)-1H-pyrazol-4-yl)quinolin-4-yl)ethyl)benzamide] | < 0.5 | 26.4 ± 4.5
9 | Cc1ccc(OCCN(C)C)cc1C(=O)N[C@H](C)c1cc(-c2ccc3c(c2)OC(F)(F)O3)nc2ccccc12 [Example 56, (R)—N-(1-(2-(2,2-difluorobenzo[d][1,3]dioxol-5-yl)quinolin-4-yl)ethyl)-5-(2-(dimethylamino)ethoxy)-2-methylbenzamid] | < 0.5 | 15.2 ± 7.09
10 | CCn1ccc(-c2cc([C@@H](C)NC(=O)c3cc(N4C[C@H]5C[C@@H]4CN5C)ccc3C)c3ccccc3n2)n1 [Example 107, N—((R)-1-(2-(1-ethyl-1H-pyrazol-3-yl)quinolin-4-yl)ethyl)-2-methyl-5-((1R,4R)-5-methyl-2,5-diazabicyclo[2.2.1]heptan-2-yl)benzamide] | < 0.5 | 22.3 ± 1.39
11 | CSc1ccc(-c2cc([C@@H](C)NC(=O)c3cc(OCCN(C)C)ccc3C)c3ccccc3n2)cc1 [Example 70, (R)-5-(2-(dimethylamino)ethoxy)-2-methyl-N-(1-(2-(4-(methylthio)phenyl)quinolin-4-yl)ethyl)benzamide] | < 0.5 | 8.5 ± 2.01
12 | Cc1ccc(OCCN(C)C)cc1C(=O)N[C@H](C)c1cc(-c2cnn(CC(=O)N(C)C)c2)nc2ccccc12 [Example 71, (R)—N-(1-(2-(1-(2-(dimethylamino)-2-oxoethyl)-1H-pyrazol-4-yl)quinolin-4-yl)ethyl)-5-(2-(dimethylamino)ethoxy)-2-methylbenzamide] | < 0.5 | > 250
13 | CCn1ccc(-c2cc([C@@H](C)NC(=O)c3cc(OC[C@H]4CCCN4C)ccc3C)c3ccccc3n2)n1 [Example 110, N—((R)-1-(2-(1-ethyl-1H-pyrazol-3-yl)quinolin-4-yl)ethyl)-2-methyl-5-(((R)-1-methylpyrrolidin-2-yl)methoxy)benzamide] | < 0.5 | 46.3 ± 13.9
14 | Cc1ccc(N2CCN(C)CC2)cc1C(=O)N[C@H](C)c1cc(-c2ccco2)nc2ccccc12 [Example 74, (R)—N-(1-(2-(furan-2-yl)quinolin-4-yl)ethyl)-2-methyl-5-(4-methylpiperazin-1-yl)benzamide] | < 0.5 | 19.5 ± 1.13
15 | Cc1ccc(OCCN(C)C)cc1C(=O)N[C@H](C)c1cc(-c2ccc(CN3CCCC3)s2)nc2ccccc12 [Example 51, (R)-5-(2-(dimethylamino)ethoxy)-2-methyl-N-(1-(2-(5-(pyrrolidin-1-ylmethyl)thiophen-2-yl)quinolin-4-yl)ethyl)benzamide] | < 0.5 | 27.1 ± 14
16 | Cc1ccc(OCCN(C)C)cc1C(=O)N[C@H](C)c1cc(-c2ccc(N3CCN(C)CC3)s2)nc2ccccc12 [Example 48, (R)-5-(2-(dimethylamino)ethoxy)-2-methyl-N-(1-(2-(5-(4-methylpiperazin-1-yl)thiophen-2-yl)quinolin-4-yl)ethyl)benzamide] | < 0.5 | 15.4 ± 7.94
17 | Cc1ccc(OC[C@@H]2CCCN2C)cc1C(=O)N[C@H](C)c1cc(-c2ccn(C)n2)nc2ccccc12 [Example 98, 2-methyl-N—((R)-1-(2-(1-methyl-1H-pyrazol-3-yl)quinolin-4-yl)ethyl)-5-(((S)-1-methylpyrrolidin-2-yl)methoxy)benzamide] | < 0.5 | 18.8 ± 1.49
18 | Cc1ccc(N2CCN(C)C3(CC3)C2)cc1C(=O)N[C@H](C)c1cc(-c2cnn(C)c2)nc2ccccc12 [Example 80, (R)-2-methyl-N-(1-(2-(1-methyl-1H-pyrazol-4-yl)quinolin-4-yl)ethyl)-5-(4-methyl-4,7-diazaspiro[2.5]octan-7-yl)benzamide] | < 0.5 | 49.7 ± 4.65
19 | Cc1ccc(OCCN(C)C)cc1C(=O)N[C@H](C)c1cc(-c2cncn2C)nc2ccccc12 [Example 66, (R)-5-(2-(dimethylamino)ethoxy)-2-methyl-N-(1-(2-(1-methyl-1H-imidazol-5-yl)quinolin-4-yl)ethyl)benzamide] | < 0.5 | 79.5 ± 8.62
20 | Cc1ccc(OCCN(C)C)cc1C(=O)N[C@@H](C)c1cc(-c2cnn(C3CC3)c2)nc2ccccc12 [Example 20, (S)—N-(1-(2-(1-cyclopropyl-1H-pyrazol-4-yl)quinolin-4-yl)ethyl)-5-(2-(dimethylamino)ethoxy)-2-methylbenzamide] | < 0.5 | 59.6 ± 8.56
21 | Cc1ccc(OCCN(C)C)cc1C(=O)N[C@H](C)c1cc(-c2cc[nH]c(=O)c2)nc2ccccc12 [Example 54, (R)-5-(2-(dimethylamino)ethoxy)-2-methyl-N-(1-(2-(2-oxo-1,2-dihydropyridin-4-yl)quinolin-4-yl)ethyl)benzamide] | 0.5 to 1 | > 125
22 | Cc1ccc(OCCN(C)C)cc1C(=O)N[C@H](C)c1cc(-c2cnn(C(F)(F)F)c2)nc2ccccc12 [Example 63, (R)-5-(2-(dimethylamino)ethoxy)-2-methyl-N-(1-(2-(1-(trifluoro-methyl)-1H-pyrazol-4-yl)quinolin-4-yl)ethyl)benzamide] | < 0.5 | 17.7 ± 2.04
23 | Cc1ccc(N2CCN(C)[C@H](C)C2)cc1C(=O)N[C@H](C)c1cc(-c2ccn(C)n2)nc2ccccc12 [Example 99, 5-((R)-3,4-dimethylpiperazin-1-yl)-2-methyl-N—((R)-1-(2-(1-methyl-1H-pyrazol-3-yl)quinolin-4-yl)ethyl)benzamide] | < 0.5 | 24.3 ± 2.62
24 | Cc1ccc(OC2CN(C)C2)cc1C(=O)N[C@H](C)c1cc(-c2cnn(C)c2)nc2ccccc12 [Example 90, (R)-2-methyl-N-(1-(2-(1-methyl-1H-pyrazol-4-yl)quinolin-4-yl)ethyl)-5-((1-methylazetidin-3-yl)oxy)benzamide] | < 0.5 | 72.5 ± 2.08
25 | Cc1ccc(OCCN(C)C)cc1C(=O)N[C@H](C)c1cc(-c2cnn(C(F)F)c2)nc2ccccc12 [Example 3, (R)—N-(1-(2-(1-(difluoromethyl)-1H-pyrazol-4-yl)quinolin-4-yl)ethyl)-5-(2-(dimethylamino)ethoxy)-2-methylbenzamide] | < 0.5 | 15.2 ± 2.54
26 | Cc1ccc(N2CC(N(C)C)C2)cc1C(=O)N[C@H](C)c1cc(-c2cnn(C)c2)nc2ccccc12 [Example 95, (R)-5-(3-(dimethylamino)azetidin-1-yl)-2-methyl-N-(1-(2-(1-methyl-1H-pyrazol-4-yl)quinolin-4-yl)ethyl)benzamide] | 0.5 to 1 | 311 ± 21.1
27 | CCn1ccc(-c2cc([C@@H](C)NC(=O)c3cc(N4CCN(C)CC4)ccc3C)c3ccccc3n2)n1 [Example 108, (R)—N-(1-(2-(1-ethyl-1H-pyrazol-3-yl)quinolin-4-yl)ethyl)-2-methyl-5-(4-methylpiperazin-1-yl)benzamide] | < 0.5 | 18.5 ± 1.4
